After the bases stand the sugars from the 5' end (letter, count) and the backbone: PS all phosphorothioate, else s phosphorothioate and o phosphodiester by linkage. Methylation of C is not given here. e = 2'-O-(2-methoxyethyl) (MOE); k = constrained ethyl (cEt); d = 2'-deoxy (DNA); m = 2'-O-methyl
Target: HSD17B13
Conditions: ASO, HepaRG

Sequence TCCTTGTGTAGTCCTA (sugars k3 d10 k3, PS) has a target mRNA inhibition (1 µM) of 61%.
In the case of TCGAAACTATTCATAT (sugars k3 d10 k3, PS), the target mRNA inhibition (1 µM) was 64%.
For TCGAATCATTAAGCTT (sugars k3 d10 k3, PS), the target mRNA inhibition (1 µM) was 34%.
TCGATGGAAGAAGTGC (sugars k3 d10 k3, PS) gave a target mRNA inhibition (1 µM) of 34%.
TCGCCTAAAGGAGATC (sugars k3 d10 k3, PS) was tested, and the target mRNA inhibition (1 µM) was 70%.
Work on TCTAAAGCAGGCTACT (sugars k3 d10 k3, PS) yielded a target mRNA inhibition (1 µM) of 32%.
For TCTAAAGGGCTGCTCT (sugars k3 d10 k3, PS), the target mRNA inhibition (1 µM) was 33%.
TCTAAATTACTCCGTT (sugars k3 d10 k3, PS) was tested, and the target mRNA inhibition (1 µM) was 15%.
For TCTAAATTATTGCCTG (sugars k3 d10 k3, PS), the target mRNA inhibition (1 µM) was 43%.
With TCTATTATGCACTCTA (sugars k3 d10 k3, PS) the target mRNA inhibition (1 µM) was 55%.
“TCTCTTGACAATGGTT (sugars kkdddddddddkekek, PS)” showed a target mRNA inhibition (0.02 µM) of 15%, a target mRNA inhibition (0.078 µM) of 25% and a target mRNA inhibition (0.313 µM) of 43%. For the same sequence, the target mRNA inhibition (1 µM) was 70%, the target mRNA inhibition (1.25 µM) was 71% and the target mRNA inhibition (5 µM) was 70%.
Work on “TCTCUTAGCTGTGCAC (sugars k3 d1 m1 d8 k3, PS)” yielded a target mRNA inhibition (1 µM) of 49%.
Work on TCTGATGTCAGACCTC (sugars k3 d10 k3, PS) yielded a target mRNA inhibition (1 µM) of 42%.
TCTGATTACAGCATCA (sugars k3 d10 k3, PS) was tested, and the target mRNA inhibition (1 µM) was 48%.
With “TCTGGGACCAAGGATA (sugars k3 d1 m1 d8 k3, PS)” the target mRNA inhibition (1 µM) was 31%.
In the case of “TCTGGGACCAAGGATA (sugars kkdddddddddkekek, PS)”, the target mRNA inhibition (1 µM) was 56%.
For TCTGTGGCATGGCTAC (sugars k3 d10 k3, PS), the target mRNA inhibition (1 µM) was 67%.
“TCTTAAACCTTCCCTG (sugars k3 d9 k3 e1, PS)” was tested, and the target mRNA inhibition (1 µM) was 38%.
Sequence “TCTTAAGATACCCAGG (sugars k3 d1 m1 d8 k3, PS)” has a target mRNA inhibition (1 µM) of 51%.
“TCTTAAGATACCCAGG (sugars kkdddddddddkekek, PS)” showed a target mRNA inhibition (1 µM) of 35%.
For TCTTAATTACATTCCC (sugars k3 d10 k3, PS), the target mRNA inhibition (1 µM) was 64%.
With TCTTACATGATTAAGC (sugars k3 d10 k3, PS) the target mRNA inhibition (1 µM) was 35%.
Work on TCTTACGACTTCATCT (sugars k3 d10 k3, PS) yielded a target mRNA inhibition (1 µM) of 34%.
“TCTTAGCTGTGCACTC (sugars kkdddddddddkekek, PS)” gave a target mRNA inhibition (1 µM) of 50%.
Sequence “TCTTATGTAATAGCCA (sugars k3 d1 m1 d8 k3, PS)” has a target mRNA inhibition (1 µM) of 64%.
“TCTTATGTAATAGCCA (sugars k3 d9 k3 e1, PS)” gave a target mRNA inhibition (0.02 µM) of 15%, a target mRNA inhibition (0.078 µM) of 18% and a target mRNA inhibition (0.313 µM) of 25%. For the same sequence, the target mRNA inhibition (1 µM) was 76%, the target mRNA inhibition (1.25 µM) was 65% and the target mRNA inhibition (5 µM) was 84%.
With “TCTTATGTAATAGCCA (sugars kkdddddddddkekek, PS)” the target mRNA inhibition (1 µM) was 65%.
With TCTTCATCCTTGGTGC (sugars k3 d10 k3, PS) the target mRNA inhibition (1 µM) was 48%.
In the case of “TCTTGACAATGGTTGA (sugars k3 d1 m1 d8 k3, PS)”, the target mRNA inhibition (1 µM) was 56%.
In the case of TCTTGATGTAGTGGGA (sugars k3 d10 k3, PS), the target mRNA inhibition (1 µM) was 44%.
For TCTTTAGTCAACAGTA (sugars k3 d10 k3, PS), the target mRNA inhibition (1 µM) was 68%.
In the case of TGAACAGTCTTAAACC (sugars k3 d10 k3, PS), the target mRNA inhibition (1 µM) was 56%.
Sequence TGAACTGAAACGATCC (sugars k3 d10 k3, PS) has a target mRNA inhibition (1 µM) of 58%.
For “TGAAGTTAGTATAGTT (sugars k3 d1 m1 d8 k3, PS)”, the target mRNA inhibition (1 µM) was 62%.
In the case of TGAATGTAAAGGCTGG (sugars k3 d10 k3, PS), the target mRNA inhibition (1 µM) was 38%.
For “TGACAATGGTTGATAG (sugars kkdddddddddkekek, PS)”, the target mRNA inhibition (1 µM) was 37%.
TGAGAACAATCTCCCC (sugars k3 d10 k3, PS) showed a target mRNA inhibition (0.02 µM) of 12%, a target mRNA inhibition (0.078 µM) of 30% and a target mRNA inhibition (0.313 µM) of 57%. It also gave a target mRNA inhibition (1 µM) of 69%, a target mRNA inhibition (1.25 µM) of 84% and a target mRNA inhibition (5 µM) of 90%.
TGAGATTACCCCTGGC (sugars k3 d10 k3, PS) was tested, and the target mRNA inhibition (1 µM) was 53%.
TGAGCCTAAAATTGTC (sugars k3 d10 k3, PS) showed a target mRNA inhibition (1 µM) of 30%.
TGAGCTAGACAATTGC (sugars k3 d10 k3, PS) was tested, and the target mRNA inhibition (1 µM) was 78%.
Work on TGAGTAGTGTAAGCTG (sugars k3 d10 k3, PS) yielded a target mRNA inhibition (1 µM) of 62%.
Work on “TGATATGTCAATACTC (sugars k3 d10 k1 d1 k1, PS)” yielded a target mRNA inhibition (1 µM) of 57%.
With “TGATATTCTGTGGCAT (sugars k3 d1 m1 d8 k3, PS)” the target mRNA inhibition (1 µM) was 61%.
“TGATATTCTGTGGCAT (sugars kkdddddddddkekek, PS)” showed a target mRNA inhibition (1 µM) of 46%.
TGATTTAGAGAGCGAT (sugars k3 d10 k3, PS) was tested, and the target mRNA inhibition (1 µM) was 35%.
For TGATTTTGACCTTACC (sugars k3 d10 k3, PS), the target mRNA inhibition (1 µM) was 11%.
In the case of “TGATUGAGTTCTCCAC (sugars k3 d1 m1 d8 k3, PS)”, the target mRNA inhibition (1 µM) was 4%.
TGCAACTTTTAGTCAG (sugars k3 d10 k3, PS) gave a target mRNA inhibition (1 µM) of 41%.
TGCAATGAGATTACCC (sugars k3 d10 k3, PS) was tested, and the target mRNA inhibition (1 µM) was 54%.
For “TGCACCGTTTTGGGCT (sugars k3 d1 m1 d8 k3, PS)”, the target mRNA inhibition (1 µM) was 55%.
In the case of “TGCACCGTTTTGGGCT (sugars k3 d9 k3 e1, PS)”, the target mRNA inhibition (1 µM) was 43%.
In the case of TGCACCGTTTTGGGCT (sugars k3 d10 k3, PS), the target mRNA inhibition (1 µM) was 36%.
“TGCACCGTTTTGGGCT (sugars kkdddddddddkekek, PS)” gave a target mRNA inhibition (1 µM) of 29%.
With “TGCAGCATTGATTCGA (sugars k3 d9 k3 e1, PS)” the target mRNA inhibition (1 µM) was 52%.
With TGCATAAGAGCCAAAC (sugars k3 d10 k3, PS) the target mRNA inhibition (1 µM) was 56%.
With “TGCCAAACCAATGTTT (sugars k3 d1 m1 d8 k3, PS)” the target mRNA inhibition (1 µM) was 35%.
In the case of “TGCCAAACCAATGTTT (sugars k3 d9 k3 e1, PS)”, the target mRNA inhibition (1 µM) was 43%.
Work on TGCCAAGCTTTGTGTC (sugars k3 d10 k3, PS) yielded a target mRNA inhibition (1 µM) of 38%.
Work on TGCCCCGAATTATTTC (sugars k3 d10 k3, PS) yielded a target mRNA inhibition (1 µM) of 3%.
With “TGCTACTTGAACAGTC (sugars k3 d9 k3 e1, PS)” the target mRNA inhibition (1 µM) was 68%.
TGCTAGTAATTGCATC (sugars k3 d10 k3, PS) gave a target mRNA inhibition (1 µM) of 17%.
Work on “TGCTAGTGCCAAACCA (sugars k3 d1 m1 d8 k3, PS)” yielded a target mRNA inhibition (0.02 µM) of 7%, a target mRNA inhibition (0.078 µM) of 29% and a target mRNA inhibition (0.313 µM) of 46%. For the same sequence, the target mRNA inhibition (1 µM) was 80%, the target mRNA inhibition (1.25 µM) was 67% and the target mRNA inhibition (5 µM) was 90%.
With “TGCTGCATTAATGCCA (sugars k3 d1 m1 d8 k3, PS)” the target mRNA inhibition (1 µM) was 32%.
For TGCTGCATTAATGCCA (sugars k3 d10 k3, PS), the target mRNA inhibition (1 µM) was 15%.
“TGCTGCTAGTGCCAAA (sugars k3 d9 k3 e1, PS)” was tested, and the target mRNA inhibition (1 µM) was 56%.
With “TGCTGCTAGTGCCAAA (sugars kkdddddddddkekek, PS)” the target mRNA inhibition (1 µM) was 40%.
In the case of TGCTTACGACAGGTCA (sugars k3 d10 k3, PS), the target mRNA inhibition (0.02 µM) was 0%, the target mRNA inhibition (0.078 µM) was 21% and the target mRNA inhibition (0.313 µM) was 57%. For the same sequence, the target mRNA inhibition (1 µM) was 81%, the target mRNA inhibition (1.25 µM) was 70% and the target mRNA inhibition (5 µM) was 90%.
With TGCTTTAGCTTAAACT (sugars k3 d10 k3, PS) the target mRNA inhibition (1 µM) was 51%.
TGGCTATAGTAATTGC (sugars k3 d10 k3, PS) showed a target mRNA inhibition (1 µM) of 34%.
Sequence TGGCTTAATGTTCAGT (sugars k3 d10 k3, PS) has a target mRNA inhibition (1 µM) of 50%.
With TGGGAAATTGTTGCTG (sugars k3 d10 k3, PS) the target mRNA inhibition (1 µM) was 38%.
“TGGGACCAAGGATATA (sugars kkdddddddddkekek, PS)” was tested, and the target mRNA inhibition (1 µM) was 30%.
TGGGAGTCGGATTATT (sugars k3 d10 k3, PS) showed a target mRNA inhibition (1 µM) of 44%.
With TGGGATACTATTCTCC (sugars k3 d10 k3, PS) the target mRNA inhibition (1 µM) was 18%.
For TGGGTCCATTGTTTCT (sugars k3 d10 k3, PS), the target mRNA inhibition (1 µM) was 35%.
Work on “TGGTAACGGTGATCAA (sugars k3 d1 m1 d8 k3, PS)” yielded a target mRNA inhibition (1 µM) of 41%.
“TGGTAACGGTGATCAA (sugars kkdddddddddkekek, PS)” showed a target mRNA inhibition (1 µM) of 26%.
“TGTAAGAGTCAGTATC (sugars k3 d1 m1 d8 k3, PS)” showed a target mRNA inhibition (1 µM) of 29%.
“TGTAAGAGTCAGTATC (sugars kkdddddddddkekek, PS)” showed a target mRNA inhibition (1 µM) of 35%.
“TGTAATAGCCAGTACA (sugars k3 d9 k3 e1, PS)” was tested, and the target mRNA inhibition (1 µM) was 34%.
“TGTAATAGCCAGTACA (sugars kkdddddddddkekek, PS)” was tested, and the target mRNA inhibition (1 µM) was 45%.
TGTAATTGGCTCTTGA (sugars k3 d10 k3, PS) was tested, and the target mRNA inhibition (1 µM) was 0%.
In the case of TGTACCAAACTTGCCC (sugars k3 d10 k3, PS), the target mRNA inhibition (1 µM) was 53%.
For TGTAGTCCTAGGGAGG (sugars k3 d10 k3, PS), the target mRNA inhibition (0.02 µM) was 0%, the target mRNA inhibition (0.078 µM) was 0% and the target mRNA inhibition (0.313 µM) was 32%. It also gave a target mRNA inhibition (1 µM) of 86%, a target mRNA inhibition (1.25 µM) of 66% and a target mRNA inhibition (5 µM) of 83%.
Work on “TGTAGTGGGAGTCGGA (sugars k3 d1 m1 d8 k3, PS)” yielded a target mRNA inhibition (1 µM) of 50%.
With “TGTAGTGGGAGTCGGA (sugars k3 d9 k3 e1, PS)” the target mRNA inhibition (1 µM) was 53%.
With TGTATGAGGTCTCTCA (sugars k3 d10 k3, PS) the target mRNA inhibition (1 µM) was 66%.
For “TGTCCAGGTTGAGATA (sugars k3 d9 k3 e1, PS)”, the target mRNA inhibition (1 µM) was 45%.
TGTCCAGGTTGAGATA (sugars k3 d10 k3, PS) gave a target mRNA inhibition (1 µM) of 48%.
Work on TGTGAGAAGGCGGTAT (sugars k3 d10 k3, PS) yielded a target mRNA inhibition (1 µM) of 20%.
TGTTATCAGAAACTTA (sugars k3 d10 k3, PS) showed a target mRNA inhibition (1 µM) of 44%.
Sequence TGTTGATATTCTGTGG (sugars k3 d10 k3, PS) has a target mRNA inhibition (1 µM) of 68%.
For “TTAAAATAGAGTCGGT (sugars k3 d9 k3 e1, PS)”, the target mRNA inhibition (1 µM) was 71%.
TTAAGAGAAGGTGCAC (sugars k3 d10 k3, PS) showed a target mRNA inhibition (1 µM) of 38%.
In the case of TTAAGATGTCCAGGCA (sugars k3 d10 k3, PS), the target mRNA inhibition (1 µM) was 35%.
Sequence “TTAATGCCACCCTACC (sugars k3 d9 k3 e1, PS)” has a target mRNA inhibition (1 µM) of 20%.
“TTACAGCATCAAGACA (sugars kkdddddddddkekek, PS)” showed a target mRNA inhibition (1 µM) of 22%.
TTACCAGAGCATTCAT (sugars k3 d10 k3, PS) gave a target mRNA inhibition (1 µM) of 50%.

Reference: the OligoGym collection
